The record followed here is US20220296722A1, “CONJUGATES AND CONJUGATES FOR USE IN PREVENTING OR TREATING OF BRAIN DAMAGE AND NEURODEGENERATIVE DISEASES” (MEDICORTEX FINLAND OY, priority 2019, published 2022).

SMILES strings stand for the structures.

Data set [1] is described as follows: Modified Irwin procedure: overt behavioural and physiological parameters after a single intraperitoneal dose. It is filed as in vivo, Male CD-1 (ICR) mice. Particulars: for behavioural or physiological changes (modified Irwin): single dose, 3 mice, assessed 0.25-24 h. How it is done:
(§1) MCF-013 was formulated as a clear solution by dissolving in 10% final volume ethanol and then making up to full volume with saline at concentrations of 0.1, 0.3, 1 and 4 mg provided material/mL. This provided doses of 1, 3, 10 and 40 mg provided material/kg when administered intraperitoneally in 10 ml/kg dosing volumes.
(§2) Male CD-1 (ICR) mice were acclimatised to the procedure room. Groups of 3 mice were administered with vehicle (ethanol:saline) [10:90], or MCF-013 at 1, 3, 10 or 40 mg/kg intraperitoneally in 10 mL/kg dosing volumes. Doses were administered in an escalating dose order. […] These tissues were then excised and weighed and any with overt macroscopic abnormalities were to be placed in 10 volumes neutral buffered formalin solution (Sigma Cat no: HT501128).

A short description of data set [2]: Gross macroscopic examination and weighing of major organs at 24 h after dosing. The class given is in vivo, Male CD-1 (ICR) mice. How it is done: as §1, §2

Turning to `O=C(Nc1ccccc1OCCOc1ccc(O)c(O)c1OC[C@H]1O[C@@H](O)[C@H](O)[C@@H](O)[C@@H]1O)c1cccc(O)c1O` [MCF-013, N-{o-[2-(2-{[(2R,3S,4S,5R,6R)-3,4,5,6-Tetrahydroxytetrahydro-2Hpyran-2-yl]methoxy}-3,4-dihydroxyphenoxy)ethoxy]phenyl}2,3-dihydroxybenzamide], the “behavioural or physiological changes (modified Irwin)” value in data set [1] (1 mg/kg intraperitoneally) was “One of three mice (No. 6) showed slight hunched posture at 0.5 and 1h, and slight piloerection 0.5 h after dosing”; in data set [1] (3 mg/kg intraperitoneally) it was “One of three animals (mouse 9) showed slight hunched posture at 0.25 h after dosing”; in data set [1] (10 mg/kg intraperitoneally), “no behavioural or physiological changes were noted”; in data set [1] (40 mg/kg intraperitoneally), “no behavioural or physiological changes were noted”. For the same compound, in data set [1] (1, 3, 10 and 40 mg provided material/kg intraperitoneally, mice, compared with ethanol:saline [10:90] vehicle), the “tolerability over a 24 h period” value is listed as “well tolerated”. Besides, the “gross macroscopic examination of the major organs” value in data set [2] (1 mg/kg intraperitoneally) is “caecum of mouse 6 was noted to be slightly distended with air”; in data set [2] (3 mg/kg intraperitoneally), “no abnormalities”; in data set [2] (10 mg/kg intraperitoneally) it was “no abnormalities”; in data set [2] (40 mg/kg intraperitoneally), “no abnormalities”. Besides, the organ weights result in data set [2] (1 mg/kg intraperitoneally), in data set [2] (3 mg/kg intraperitoneally), in data set [2] (10 mg/kg intraperitoneally) and in data set [2] (40 mg/kg intraperitoneally) was “normal” in each case.
